Measured values: patent US9957271B2, “Substituted bicyclic aza-heterocycles and analogues as sirtuin modulators” (GlaxoSmithKline, LLC, priority 2012, dated 2018)

Assays:
SIRT1 [1] = target: T1, SIRT1 (Homo sapiens, UniProt Q96EB6); assay: TAMRA based mass spectrometry assay of SIRT1 activity; type: biochemical; conditions: for Emax: read-out: TAMRA % Fold Act
T1 sequence (Q96EB6 1-747): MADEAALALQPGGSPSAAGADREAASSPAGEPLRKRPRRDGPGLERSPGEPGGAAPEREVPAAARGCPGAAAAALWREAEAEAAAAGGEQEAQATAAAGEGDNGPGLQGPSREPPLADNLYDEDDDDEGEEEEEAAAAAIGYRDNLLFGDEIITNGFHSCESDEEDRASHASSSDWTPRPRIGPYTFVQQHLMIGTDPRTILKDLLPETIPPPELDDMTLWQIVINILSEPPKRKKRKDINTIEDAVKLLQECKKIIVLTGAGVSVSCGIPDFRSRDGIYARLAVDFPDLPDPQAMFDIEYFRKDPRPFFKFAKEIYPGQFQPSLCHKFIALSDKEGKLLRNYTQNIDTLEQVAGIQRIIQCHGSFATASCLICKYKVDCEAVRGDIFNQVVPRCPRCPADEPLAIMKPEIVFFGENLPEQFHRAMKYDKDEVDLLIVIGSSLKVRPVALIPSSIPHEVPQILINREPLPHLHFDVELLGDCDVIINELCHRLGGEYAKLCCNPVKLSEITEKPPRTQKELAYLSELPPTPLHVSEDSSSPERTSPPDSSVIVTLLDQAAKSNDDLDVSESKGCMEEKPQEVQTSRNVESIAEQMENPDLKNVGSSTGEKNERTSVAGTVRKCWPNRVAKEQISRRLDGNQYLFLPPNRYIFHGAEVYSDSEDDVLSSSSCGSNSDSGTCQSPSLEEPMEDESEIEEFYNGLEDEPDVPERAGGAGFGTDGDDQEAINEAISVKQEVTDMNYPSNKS
Summary of the method: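 Recombinant N-terminal His-tagged human SIRT1 (10 nM, E. coli) incubated 25 min at 25 °C with 0.5 μM 5TMR-labelled p53-derived acetyl-peptide and 120 μM βNAD+ in Tris-acetate pH 8 buffer with DTT and 0.05% BSA, compound at varying concentrations. Stopped with formic acid; deacetylated peptide or OAADPR measured by mass spectrometry relative to DMSO controls.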

SIRT1 [2] = target: T1, SIRT1; assay: Trp mass spectrometry assay of SIRT1 activity; type: biochemical; conditions: for Emax: read-out: Trp % Fold Act
Summary of the method: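 His-tagged SIRT1 expressed in E. coli BL21(DE3), 10 nM, incubated 25 min at 25° C. with 0.5 μM Ac-RHKK(Ac)W-NH2 peptide and 120 μM βNAD+ in 50 mM HEPES pH 7.5, […], 1 mM DTT, 0.05% BSA; formic acid stop. OAADPR or deacetylated peptide measured by mass spectrometry; EC1.5 and percent maximum activation versus DMSO control.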

[3] = concentration of test compound giving 150% activation of SIRT1, TAMRA peptide substrate
[4] = percent maximum fold activation of SIRT1, TAMRA peptide substrate
[5] = concentration of test compound giving 150% activation of SIRT1, Trp peptide substrate
[6] = percent maximum fold activation of SIRT1, Trp peptide substrate
[7] = TAMRA assay, concentration giving 150% activation of SIRT1
[8] = TAMRA assay, percent maximum fold activation
[9] = Trp assay, concentration giving 150% activation of SIRT1
[10] = Trp assay, percent maximum fold activation
[11] = TAMRA peptide substrate, concentration giving 150% activation of SIRT1
[12] = TAMRA peptide substrate, percent maximum fold activation
[13] = Trp peptide substrate, concentration giving 150% activation of SIRT1
[14] = Trp peptide substrate, percent maximum fold activation

SMILES	TAMRA EC1.5 (μM) (SIRT1 [1]; [7])	Emax (SIRT1 [1]; [8])	Trp EC1.5 (μM) (SIRT1 [2]; [9])	Emax (SIRT1 [2]; [10])	also measured
Cc1cc(-c2ccccc2C(F)(F)F)nn2c(C(=O)Nc3cccc(N4CCOCC4)n3)cnc12 [Compound 192]					TAMRA EC1.5 (μM) (SIRT1 [1]; [3]): A (EC1.5<1 μM); Emax (SIRT1 [1]; [4]): ≥ 350%; Trp EC1.5 (μM) (SIRT1 [2]; [5]): A (EC1.5<1 μM); Emax (SIRT1 [2]; [6]): ≥ 350%
O=C(Nc1cnc2ccc(-c3ccccc3Cl)nn12)c1cscn1 [Compound 291]	B (EC1.5 1-25 μM)	≥ 350%	C (EC1.5>25 μM)	< 350%	
O=C(Nc1cnn2ccc(-c3ccccc3C(F)(F)F)nc12)c1nc(C(F)(F)F)cs1 [Compound 809]	A (EC1.5<1 μM)	≥ 350%	C (EC1.5>25 μM)	< 350%	
O=C(Nc1nc(CN2CCOCC2)cs1)c1cnc2ccc(-c3ccccc3C(F)F)nn12 [Compound 35]					TAMRA EC1.5 (μM) (SIRT1 [1]; [3]): B (EC1.5 1-25 μM); Emax (SIRT1 [1]; [4]): < 350%; Trp EC1.5 (μM) (SIRT1 [2]; [5]): C (EC1.5>25 μM); Emax (SIRT1 [2]; [6]): < 350%
Cc1nn2ccc(-c3ccccc3C(F)(F)F)nc2c1C(=O)Nc1ncc(F)cc1F [Compound 788]	B (EC1.5 1-25 μM)	≥ 350%	B (EC1.5 1-25 μM)	≥ 350%	
O=C(Nc1cnn2ccc(-c3ccccc3OC(F)(F)F)nc12)c1nc(C(F)(F)F)cs1 [Compound 770]	B (EC1.5 1-25 μM)	≥ 350%	C (EC1.5>25 μM)	< 350%	
Cc1csc(NC(=O)c2cnn3ccc(-c4ccccc4C(F)(F)F)nc23)n1 [Compound 508]					TAMRA EC1.5 (SIRT1 [1]; [11]): A (EC1.5<1 μM); Emax (SIRT1 [1]; [12]): ≥ 350%; Trp EC1.5 (SIRT1 [2]; [13]): A (EC1.5<1 μM); Emax (SIRT1 [2]; [14]): ≥ 350%
O=C(Nc1cnn2ccc(-c3ccccc3OC(F)(F)F)nc12)c1cc(O)ncn1 [Compound 776]	B (EC1.5 1-25 μM)	≥ 350%	C (EC1.5>25 μM)	< 350%	
Cc1nc2ccc(-c3ccccc3C(F)(F)F)nn2c1C(=O)Nc1ccncc1 [Compound 499]					TAMRA EC1.5 (SIRT1 [1]; [11]): A (EC1.5<1 μM); Emax (SIRT1 [1]; [12]): ≥ 350%; Trp EC1.5 (SIRT1 [2]; [13]): A (EC1.5<1 μM); Emax (SIRT1 [2]; [14]): ≥ 350%
Cc1cc2ncc(NC(=O)c3cccc(N4CCC4)n3)n2nc1-c1ccccc1C(F)(F)F [Compound 448]					TAMRA EC1.5 (SIRT1 [1]; [11]): A (EC1.5<1 μM); Emax (SIRT1 [1]; [12]): ≥ 350%; Trp EC1.5 (SIRT1 [2]; [13]): B (EC1.5 1-25 μM); Emax (SIRT1 [2]; [14]): ≥ 350%
CC(C)c1nccc(C(=O)Nc2cnn3ccc(-c4ccccc4OC(F)(F)F)nc23)n1 [Compound 728]	A (EC1.5<1 μM)	≥ 350%	C (EC1.5>25 μM)	< 350%	
Cc1cc(-c2ccccc2C(F)(F)F)nn2c(C(=O)Nc3cccnc3)cnc12 [Compound 206]	B (EC1.5 1-25 μM)	≥ 350%	B (EC1.5 1-25 μM)	≥ 350%	
O=C(Nc1cccc(N2CCOCC2)n1)c1cnc2ccc(N3CCCC(C(F)(F)F)C3)nn12 (stereo not shown) [Compound 578]					TAMRA EC1.5 (SIRT1 [1]; [11]): A (EC1.5<1 μM); Emax (SIRT1 [1]; [12]): ≥ 350%; Trp EC1.5 (SIRT1 [2]; [13]): A (EC1.5<1 μM); Emax (SIRT1 [2]; [14]): ≥ 350%
O=C(Nc1ncn2ccc(-c3ccccc3C(F)(F)F)nc12)c1ccccn1 [Compound 455, N-(2-(2-(trifluoromethyl)phenyl)imidazo[1,5-a]pyrimidin-8-yl)picolinamide]					TAMRA EC1.5 (SIRT1 [1]; [11]): B (EC1.5 1-25 μM); Emax (SIRT1 [1]; [12]): < 350%; Trp EC1.5 (SIRT1 [2]; [13]): C (EC1.5>25 μM); Emax (SIRT1 [2]; [14]): < 350%
O=C(Nc1cccc(N2CCOCC2)n1)c1cnc2ccc(-c3ccccc3Cl)nn12 [Compound 95]					TAMRA EC1.5 (μM) (SIRT1 [1]; [3]): A (EC1.5<1 μM); Emax (SIRT1 [1]; [4]): ≥ 350%; Trp EC1.5 (μM) (SIRT1 [2]; [5]): A (EC1.5<1 μM); Emax (SIRT1 [2]; [6]): < 350%
O=C(Nc1cccc(CN2CCOCC2)n1)c1cnn2ccc(-c3ccccc3C(F)(F)F)nc12 [Compound 269]	A (EC1.5<1 μM)	≥ 350%	B (EC1.5 1-25 μM)	≥ 350%	
Cc1cnc(C(=O)Nc2cnn3ccc(-c4ccccc4OC(F)(F)F)nc23)s1 [Compound 782]	A (EC1.5<1 μM)	≥ 350%	C (EC1.5>25 μM)	< 350%	
O=C(Nc1nc(CN2CCOCC2)cs1)c1cnc2ccc(-c3ccc(F)c(F)c3)nn12 [Compound 44]					TAMRA EC1.5 (μM) (SIRT1 [1]; [3]): B (EC1.5 1-25 μM); Emax (SIRT1 [1]; [4]): < 350%; Trp EC1.5 (μM) (SIRT1 [2]; [5]): B (EC1.5 1-25 μM); Emax (SIRT1 [2]; [6]): < 350%
O=C(Nc1ccncc1F)c1cnc2ccc(-c3ccccc3OC[C@H](O)CO)nn12 [Compound 831]	B (EC1.5 1-25 μM)	≥ 350%	B (EC1.5 1-25 μM)	< 350%	
O=C(Nc1ncccn1)c1cnn2ccc(-c3ccccc3C(F)(F)F)nc12 [Compound 266, N-(pyrimidin-2-yl)-5-(2-(trifluoromethyl)phenyl)pyrazolo[1,5-a]pyrimidine-3-carboxamide]	B (EC1.5 1-25 μM)	≥ 350%	B (EC1.5 1-25 μM)	< 350%	

Continued, in another order:

TAMRA EC1.5 (μM) (SIRT1 [1]; [7])	Emax (SIRT1 [1]; [8])	Trp EC1.5 (μM) (SIRT1 [2]; [9])	Emax (SIRT1 [2]; [10])	SMILES	also measured
A (EC1.5<1 μM)	< 350%	A (EC1.5<1 μM)	< 350%	Cc1cccc(-c2ccc3nc(C)c(C(=O)Nc4ccc(C)nn4)n3n2)c1 [Compound 692]	
A (EC1.5<1 μM)	≥ 350%	B (EC1.5 1-25 μM)	< 350%	Cc1cc(NC(=O)c2cnc3ccc(-c4ccccc4Cl)nn23)cc(C)n1 [Compound 260]	
C (EC1.5>25 μM)	< 350%	C (EC1.5>25 μM)	< 350%	Cc1nc2ccc(-c3ccccc3Cl)nn2c1NC(=O)c1ccncn1 [Compound 348]	
B (EC1.5 1-25 μM)	≥ 350%	A (EC1.5<1 μM)	≥ 350%	Cc1ncccc1NC(=O)c1c(C)nn2ccc(-c3ccccc3Br)nc12 [Compound 824]	
B (EC1.5 1-25 μM)	< 350%	C (EC1.5>25 μM)	< 350%	Cc1nc(C(=O)Nc2c(C)nc3ccc(-c4ccccc4Cl)nn23)cs1 [Compound 351]	
A (EC1.5<1 μM)	≥ 350%	A (EC1.5<1 μM)	≥ 350%	Cc1cc(-c2ccccc2C(F)(F)F)nn2c(C(=O)Nc3ccnc(OC(C)C)n3)cnc12 [Compound 615]	
B (EC1.5 1-25 μM)	< 350%	B (EC1.5 1-25 μM)	< 350%	Cc1cc(OCC(O)CO)nc(NC(=O)c2cnc3ccc(-c4ccccc4Cl)nn23)n1 (stereo not shown) [Compound 285]	
A (EC1.5<1 μM)	≥ 350%	B (EC1.5 1-25 μM)	< 350%	Cc1cc(C(=O)Nc2cnc3ccc(-c4ccccc4C(F)(F)F)nn23)nc(C)n1 [Compound 275]	
A (EC1.5<1 μM)	≥ 350%	A (EC1.5<1 μM)	≥ 350%	Cc1cccc(NC(=O)c2c(C)nc3ccc(-c4cccc(OC[C@H](O)CO)c4)nn23)n1 [Compound 790]	
B (EC1.5 1-25 μM)	< 350%	C (EC1.5>25 μM)	< 350%	Cc1cnc(C(=O)Nc2c(C)nc3ccc(-c4ccccc4Cl)nn23)s1 [Compound 354]	
A (EC1.5<1 μM)	≥ 350%	B (EC1.5 1-25 μM)	< 350%	Cc1cc(NC(=O)c2cnn3ccc(-c4ccccc4OC(F)(F)F)nc23)nc(C)n1 [Compound 659]	
